In assay [1] the test system is LNCaP human prostate cell line. Description: Soft agar growth assay, LNCaP. The format is cell-based. As to conditions: de novo expression of ETS2 in weakly tumorigenic LNCaP. The method, then:
(§1) Transfection of LNCaP was performed in 35-mm wells using 2 μg of DNA and Superfact Reagent (Qiagen, Calif.). Selection for stable LNCaP transfectants was in 450 μg/ml G418. DU145 and PC3 cells were transfected using LipofectAmine ([…]/35 mm well, Life Technologies Inc., Bethesda, Md.). Stable DU145 and PC3 transfectants were expanded in the presence of 300 μg/ml G418.
(§2) Soft agar growth assays were performed in six-well plates (35-mm wells). Cells (20,000) were plated in 0.4% agar (Sigma) in RPMI 1640 supplemented with 10% FBS. An underlayer of 0.8% agar was used to prevent attachment of cells. Triplicate assays initiated with 20,000 cells were fed weekly by agar overlay and scored after 3 weeks. The soft agar assays were performed twice, independently.

For another assay, the system named is DU145 cells. Description: Soft agar growth assay (anchorage independent growth), DU145. The format is cell-based, human. As to conditions: DN-ETS2 transfectants vs DU145 parental cell line, after three weeks. The method, then:
as §1, §2

As to “ETS2: wild type human ETS2 transcription factor, expressed de novo in LNCaP from ETS2 cDNA in sense orientation”, the “ability to grow in soft agar” value in assay [1] was “increases its ability to grow in soft agar”.

B1: DN-ETS2: dominant negative truncated human ETS2 protein, DNA binding domain (C-terminal amino acids 334-469), expressed from plasmid pDN-ETS2 (protein, UniProt P15036 334-469, looked up, fragment)
chain: YIQERSDPVEQGKPVIPAAVLAGFTGSGPIQLWQFLLELLSDKSCQSFISWTGDGWEFKLADPDEVARRWGKRKNKPKMNYEKLSRGLRYYYDKNIIHKTSGKRYVYRFVCDLQNLLGFTPEELHAILGVQPDTED
B1: the “anchorage-independent growth in soft agar” value in the assay on DU145 cells is recorded as “do not grow well in soft agar”.

The values above are taken from patent US20040047845A1, “Methods and compositions for diagnosis and treatment of cancer based on the transcription factor ets2” (MUSC Foundation For Research Development, priority 1998, published 2004).
